The text below walks through data of ChEMBL document CHEMBL1201862, “PubChem BioAssay data set” (2004).

The source made the active and inactive calls. A value given as a limit tells only on which side of the number the result lay.

Assay [1] is described as follows: P. falciparum 3D7-ScDHODH growth inhibitors, dose response, SYBR Green, dry powder samples (AID 1159570).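 Also: parasite growth measured after 72 hours of compound exposure.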 Type of assay: functional, cell-based.
A short description of assay [2]: HepG2 cell cytotoxicity, dose response, cytotoxicity control, plate reader, dry powder samples (AID 1159569).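 Also: inhibitor potency with signal falling toward the positive control level.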 Type of assay: functional, cell-based.
Assay [3] is described as follows: P. falciparum Dd2 growth inhibitors, dose response, SYBR Green, cherry-picked samples (AID 1159567). Type of assay: functional, cell-based.
A short description of assay [4]: P. falciparum Dd2 growth inhibitors, dose response, SYBR Green, dry powder samples (AID 1159566).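 Also: potency for growth inhibition with lower SYBR green DNA signal.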 Type of assay: functional, cell-based.
Assay [5] can be described thus: P. falciparum ATP4 D1247Y mutant growth inhibitors, dose response, NITD609-resistant line, SYBR Green, dry powder (AID 1159571).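 Also: parasites synchronized at ring stage by sorbitol before testing.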 Type of assay: functional, cell-based.
Assay [6] deals with Bifunctional protein GlmU (Mycobacterium tuberculosis, UniProt P9WMN3). In words: Inhibitors of Mycobacterial Glucosamine-1-phosphate acetyl transferase (GlmU). Secondary screen. Also on record: species or system Mycobacterium tuberculosis H37Rv.
The nature of assay [7]: inhibitors of firefly luciferase expression or activity, dose response, H4 neuroglioma cells, luminescence (AID 1990). Type of assay: functional, cell-based.
Assay [8] in a line: Luminescence Cell-Based Dose Response HTS to Identify Inhibitors of 5'UTR Stem-Loop Driven Prion Protein mRNA Translation in H4 Neuroglioblastoma Cells. [Related pubchem assays: 1827 (Project Summary), 1813 (Primary HTS)]. Type of assay: functional.
A short description of assay [9]: inhibitors of SNCA 5'UTR-driven reporter translation, confirmation, H4 neuroglioma cells, luminescence (AID 1988). Type of assay: functional, cell-based.
Assay [10] has as its target Disintegrin and metalloproteinase domain-containing protein 17 (Homo sapiens, UniProt P78536). In words: exosite inhibitors of ADAM17, dose response, biochemical (AID 743260).
The nature of assay [11]: ADAM10 protease inhibitors, dose response, selectivity assay for ADAM17 exosite inhibitor project, biochemical, FRET peptide substrate, recombinant human ADAM10 (AID 743259).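 Also: ADAM10 enzyme cleaving a FRET peptide substrate.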
The next assay has as its target Cytochrome P450 2D6 (Homo sapiens, UniProt P10635).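 Also: CYP2D6 member of a cytochrome P450 panel assay.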
The target in assay [12] is Heat shock protein HSP 90-alpha (Homo sapiens, UniProt P07900). In words: Luminescence-based dose response biochemical high throughput screening assay for inhibitors of the Heat Shock Protein 90 (HSP90). [Related pubchem assays: 1831 (Summary AID.), 1846 (Confirmation screen.), 1789 (Primary screen.)].
Assay [13] concerns the target T1, Calpain-2 catalytic subunit (Sus scrofa, UniProt P43367).
T1 sequence (P43367 whole entry): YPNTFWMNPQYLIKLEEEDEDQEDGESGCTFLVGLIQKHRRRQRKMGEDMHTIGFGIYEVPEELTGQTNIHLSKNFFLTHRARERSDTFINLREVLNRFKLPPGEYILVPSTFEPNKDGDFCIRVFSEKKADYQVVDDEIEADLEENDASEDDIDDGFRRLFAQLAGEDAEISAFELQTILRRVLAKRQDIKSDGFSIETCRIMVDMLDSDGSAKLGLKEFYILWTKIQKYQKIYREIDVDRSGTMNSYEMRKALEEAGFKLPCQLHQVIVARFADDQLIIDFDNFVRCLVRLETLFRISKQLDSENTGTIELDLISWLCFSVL
In words: pig calpain II inhibitor potency, dose response, biochemical, fluorogenic peptide substrate (AID 1420). Type of assay: functional.

The target of assay [14] is G-protein coupled receptor 35 (Homo sapiens, UniProt Q9HC97). In words: GPR35 antagonists blocking zaprinast-driven arrestin recruitment, primary screen, imaging, U2OS, beta-arrestin-GFP, zaprinast agonist (AID 2058).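 Also: antagonist potency meaning inhibition of agonist-induced arrestin redistribution.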 Type of assay: functional. (In general: Activated receptors often draw arrestin, which recruitment assays turn into a signal.)
Assay [15] is described as follows: cytotoxicity in HEK-293T cells, dose response, cytotoxicity control for TCR NF-kB inhibitor project, luminescence, T-cell screen hits (AID 489026).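 Also: cells exposed to compound about 14 hours before the viability readout.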 Type of assay: functional, cell-based.
The target of assay [16] is T2, Microphthalmia-associated transcription factor (Homo sapiens, UniProt O75030).
T2 sequence (O75030 whole entry): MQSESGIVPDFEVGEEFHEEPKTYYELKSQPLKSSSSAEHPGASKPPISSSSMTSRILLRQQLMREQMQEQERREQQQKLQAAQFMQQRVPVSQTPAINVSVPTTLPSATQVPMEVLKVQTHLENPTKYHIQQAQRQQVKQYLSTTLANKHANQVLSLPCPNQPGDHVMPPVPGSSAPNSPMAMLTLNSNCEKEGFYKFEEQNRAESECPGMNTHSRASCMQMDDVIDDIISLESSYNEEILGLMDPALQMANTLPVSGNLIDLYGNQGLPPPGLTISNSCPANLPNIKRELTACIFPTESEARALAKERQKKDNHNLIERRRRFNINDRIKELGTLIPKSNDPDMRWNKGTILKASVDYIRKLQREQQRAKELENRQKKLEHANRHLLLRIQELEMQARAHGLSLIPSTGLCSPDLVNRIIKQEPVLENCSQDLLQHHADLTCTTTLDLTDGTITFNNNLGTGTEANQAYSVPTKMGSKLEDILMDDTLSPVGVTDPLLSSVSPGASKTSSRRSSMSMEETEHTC
In words: TRPM1 promoter luciferase signal decrease, dose response, MITF inhibitor project, cell-based, SK-MEL-5, cherry-picked, set 3 (AID 493073).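 Also: SK-MEL-5 melanoma cells with luciferase driven by the MITF target TRPM1 promoter.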 Type of assay: functional.

A further assay deals with A-375. In words: A375 melanoma cell viability reduction, dose response, counter-screen for MITF modulator project, cherry-pick samples, set 2 (AID 540335). Type of assay: functional, cell-based. The following applies: Homo sapiens. For orientation: A counterscreen serves to expose hits that act by an unwanted route or on another target.
For assay [17], the target named is COUP transcription factor 2 (Homo sapiens, UniProt P24468). In words: Luminescence-based cell-based high throughput dose response assay to identify inhibitors of COUP-TFII (NR2F2). Type of assay: functional.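 Also: HEK293 cells transiently cotransfected with COUP-TFII expression vector and reporter; luciferase reporter luminescence driven by COUP-TFII from the pX2-168 reporter plasmid.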
Assay [18] addresses Sphingosine 1-phosphate receptor 2 (Homo sapiens, UniProt O95136). In words: Dose Response Cell Based Assay for Agonists of the S1P2 Receptor. [Related pubchem assays: 729, 736, 843 ]. Type of assay: functional.

Bifunctional protein GlmU, sequence (P9WMN3 whole entry): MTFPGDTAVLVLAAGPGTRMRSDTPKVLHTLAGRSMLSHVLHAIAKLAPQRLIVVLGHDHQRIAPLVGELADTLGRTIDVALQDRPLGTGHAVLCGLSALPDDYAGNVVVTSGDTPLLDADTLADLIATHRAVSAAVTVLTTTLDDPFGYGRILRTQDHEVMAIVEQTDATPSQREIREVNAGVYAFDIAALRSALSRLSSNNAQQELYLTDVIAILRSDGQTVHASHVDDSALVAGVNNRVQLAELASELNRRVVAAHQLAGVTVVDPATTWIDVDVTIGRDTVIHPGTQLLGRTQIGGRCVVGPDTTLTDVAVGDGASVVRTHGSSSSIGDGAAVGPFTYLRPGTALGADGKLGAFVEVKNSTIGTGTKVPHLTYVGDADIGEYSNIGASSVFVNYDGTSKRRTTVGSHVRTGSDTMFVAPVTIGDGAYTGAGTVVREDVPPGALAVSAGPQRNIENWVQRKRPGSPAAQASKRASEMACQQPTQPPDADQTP
Sphingosine 1-phosphate receptor 2, sequence (O95136 whole entry): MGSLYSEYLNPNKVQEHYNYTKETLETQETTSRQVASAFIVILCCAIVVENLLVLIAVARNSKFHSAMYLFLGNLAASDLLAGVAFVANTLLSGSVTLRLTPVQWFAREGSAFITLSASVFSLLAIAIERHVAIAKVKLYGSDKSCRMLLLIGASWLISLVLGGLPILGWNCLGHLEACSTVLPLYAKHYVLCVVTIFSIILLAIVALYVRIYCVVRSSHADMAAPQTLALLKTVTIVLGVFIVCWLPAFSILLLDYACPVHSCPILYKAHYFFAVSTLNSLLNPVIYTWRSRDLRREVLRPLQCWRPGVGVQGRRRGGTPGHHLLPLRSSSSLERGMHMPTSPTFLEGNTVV
G-protein coupled receptor 35, sequence (Q9HC97 whole entry): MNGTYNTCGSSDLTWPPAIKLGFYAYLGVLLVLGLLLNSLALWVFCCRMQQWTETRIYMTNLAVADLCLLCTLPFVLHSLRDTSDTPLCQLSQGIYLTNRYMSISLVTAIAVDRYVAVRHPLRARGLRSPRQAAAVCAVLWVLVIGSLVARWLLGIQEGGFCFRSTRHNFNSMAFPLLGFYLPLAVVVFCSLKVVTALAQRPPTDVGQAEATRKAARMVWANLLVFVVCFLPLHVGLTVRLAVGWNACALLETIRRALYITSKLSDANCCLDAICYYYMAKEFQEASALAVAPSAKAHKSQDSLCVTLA
Cytochrome P450 2D6, sequence (P10635 whole entry): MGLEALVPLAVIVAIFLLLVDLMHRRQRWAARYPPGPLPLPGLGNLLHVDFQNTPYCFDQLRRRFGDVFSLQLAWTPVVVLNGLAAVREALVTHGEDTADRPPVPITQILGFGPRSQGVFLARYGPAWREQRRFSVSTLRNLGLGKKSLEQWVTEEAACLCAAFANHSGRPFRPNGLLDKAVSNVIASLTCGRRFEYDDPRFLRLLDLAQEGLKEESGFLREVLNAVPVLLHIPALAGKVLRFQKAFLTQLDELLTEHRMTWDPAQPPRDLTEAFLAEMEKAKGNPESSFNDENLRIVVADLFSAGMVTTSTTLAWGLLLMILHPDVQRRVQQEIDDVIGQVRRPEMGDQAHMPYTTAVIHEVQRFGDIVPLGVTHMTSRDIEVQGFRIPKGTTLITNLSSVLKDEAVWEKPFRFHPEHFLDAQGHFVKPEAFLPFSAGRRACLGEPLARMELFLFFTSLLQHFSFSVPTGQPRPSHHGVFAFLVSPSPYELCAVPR
COUP transcription factor 2, sequence (P24468 whole entry): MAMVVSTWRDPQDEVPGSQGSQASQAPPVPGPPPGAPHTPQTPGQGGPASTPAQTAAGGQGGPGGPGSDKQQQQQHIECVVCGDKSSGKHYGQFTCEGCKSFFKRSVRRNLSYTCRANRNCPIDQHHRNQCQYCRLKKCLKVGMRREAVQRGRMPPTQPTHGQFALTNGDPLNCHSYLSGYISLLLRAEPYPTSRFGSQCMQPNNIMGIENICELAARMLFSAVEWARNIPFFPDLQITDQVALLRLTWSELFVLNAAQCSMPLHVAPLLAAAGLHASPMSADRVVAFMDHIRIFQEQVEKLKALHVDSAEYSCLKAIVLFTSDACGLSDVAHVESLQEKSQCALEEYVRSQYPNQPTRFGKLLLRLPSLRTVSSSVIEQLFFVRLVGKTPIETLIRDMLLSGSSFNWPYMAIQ
Disintegrin and metalloproteinase domain-containing protein 17, sequence (P78536 whole entry, the tested form may be a part): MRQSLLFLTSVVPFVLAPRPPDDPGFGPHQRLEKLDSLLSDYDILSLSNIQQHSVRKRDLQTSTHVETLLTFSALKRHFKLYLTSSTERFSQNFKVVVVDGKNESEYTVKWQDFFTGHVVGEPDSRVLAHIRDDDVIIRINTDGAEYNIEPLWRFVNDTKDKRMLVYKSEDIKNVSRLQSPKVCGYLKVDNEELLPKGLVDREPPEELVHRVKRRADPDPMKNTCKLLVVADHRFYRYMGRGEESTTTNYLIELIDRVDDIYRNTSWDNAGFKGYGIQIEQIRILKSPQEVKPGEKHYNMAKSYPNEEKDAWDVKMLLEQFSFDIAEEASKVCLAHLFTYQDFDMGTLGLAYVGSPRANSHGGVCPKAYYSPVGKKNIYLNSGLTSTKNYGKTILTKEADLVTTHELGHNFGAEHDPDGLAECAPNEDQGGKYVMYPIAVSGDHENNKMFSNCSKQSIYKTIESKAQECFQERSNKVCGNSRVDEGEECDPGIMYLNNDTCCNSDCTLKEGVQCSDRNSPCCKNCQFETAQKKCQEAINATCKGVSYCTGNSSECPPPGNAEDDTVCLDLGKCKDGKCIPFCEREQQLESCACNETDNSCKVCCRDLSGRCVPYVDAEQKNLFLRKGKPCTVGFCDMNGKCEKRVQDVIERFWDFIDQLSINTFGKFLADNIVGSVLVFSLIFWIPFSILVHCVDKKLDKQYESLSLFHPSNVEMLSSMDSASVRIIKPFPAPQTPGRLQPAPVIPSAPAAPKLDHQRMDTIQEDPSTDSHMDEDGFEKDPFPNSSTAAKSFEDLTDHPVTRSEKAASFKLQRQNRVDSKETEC

One may read the AC50 as the concentration at which the activity in the assay is half-maximal. Turning to `COc1cccc(CN(C)C[C@H]2OCc3ccccc3-c3c(n(C)c4ccccc34)C(=O)N([C@H](C)CO)C[C@@H]2C)c1`, the concentration at half-maximal activity (AC50) is 3.29 µM (active) in assay [1]; 20.6 µM (active) in assay [2]; 2.76 µM (active) in [3]; 2.87 µM (active) in assay [4]; 3.55 µM (active) in assay [5].
A word on the IC50: it is the point on the concentration scale where inhibition reaches its midpoint. Consider `O=C(O)C1C2C=CC(CC2)C1C(=O)O` (configuration not stated), for which the IC50 in [6] was 114 µM (active).
For orientation: EC50 means the concentration at which the effect is half-maximal. On to `CC(Oc1ccc(Cl)cc1)c1ccnn1S(=O)(=O)c1ccccc1` (configuration not stated), for which the EC50 in assay [7] was 17.4 µM (active); in assay [8], > 120 µM (not active); in [9] it was > 120 µM (not active). Besides, the values for the IC50 in assay [10] and in [11] were > 69.5 µM (inactive) and 66.4 µM (inactive), respectively. For the same compound, the half-maximal activity concentration (AC50) at Cytochrome P450 2D6 was 14.1 µM (inconclusive).
With `COCC(C)n1c(C)cc(C(=O)Cn2nc(C(=O)O)c3ccccc3c2=O)c1C` (configuration not stated), the half-inhibitory concentration (IC50) in assay [12] was 11.4 µM (not active).
Turning to `O=C(O)c1cc(C(=O)O)cc(-c2ccc(/C=c3/sc4nc5ccccc5n4c3=O)o2)c1`, the half-maximal inhibitory concentration (IC50) in [13] was 22 µM (not active); in [6], 34.1 µM (active).
For the compound `CC1=CC(=Cc2sc3ccccc3[n+]2C)C=C(C)N1CC1CCCO1` (configuration not stated), the half-inhibitory concentration (IC50) is 1.44 µM (active) in assay [14], > 80 µM (inactive) in assay [15] and 4.97 µM (active) in [17]. Also, the concentration at half-maximal activity (AC50) is 1.82 µM (active) in [16] and 24.4 µM (active) with A-375.
On to `COc1cc2c(cc1OC)C1=C(C#N)CC/C(=N\C(=O)c3ccc(Cl)cc3)N1CC2`, for which the EC50 in assay [18] was 1.61 µM (active).
As for `C=CCn1c(N)cc(=O)nc1SCC(=O)Nc1ccccc1`, in assay [18], the 50% effective concentration (EC50) is recorded as > 50 µM (not active).
